Drawing on patent US20240336629A1, “Tricyclic Derivatives Useful As PARP7 Inhibitors” (JACOBIO PHARMACEUTICALS CO., LTD., priority 2021, published 2024), this text covers IC50 for 38 compounds.

SMILES strings stand for the structures.

Chain of PARP7 enzyme (Q7Z3E1 456-657): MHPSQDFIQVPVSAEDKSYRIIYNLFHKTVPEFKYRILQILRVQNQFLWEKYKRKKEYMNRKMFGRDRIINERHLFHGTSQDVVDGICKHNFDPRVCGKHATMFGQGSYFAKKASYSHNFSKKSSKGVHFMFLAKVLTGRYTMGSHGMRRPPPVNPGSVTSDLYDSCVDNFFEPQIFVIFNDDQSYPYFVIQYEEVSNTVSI

The test system of one test is lung cancer cell line H1373 (high expression of PARP7). Description: Lung cancer cell proliferation inhibition experiment (CTG method). Format: cell-based. The note with it: H1373 cells, 144 hrs incubation, Cell Titer Glo.
Regarding `COc1ccc(Cn2ncc(N3CC[C@H]3COCCC(=O)N3CCN4c5ncc(C(F)(F)F)cc5N(C)C(=O)[C@@H]4C3)c(C(F)(F)F)c2=O)cc1` (single isomer, unassigned) [Compound 87A], the half-inhibitory concentration (IC50) stood at 0.0058 µM.

`COc1ccc(Cn2ncc(N3CC[C@H]3COCCC(=O)N3CCN4c5ncc(C(F)(F)F)cc5N(C)C(=O)[C@H]4C3)c(C(F)(F)F)c2=O)cc1` (single isomer, unassigned) [Compound 87B] yielded an IC50 of 0.00535 µM.

`C[C@H](COCCC(=O)N1CCN2c3ncc(C(F)(F)F)cc3N(C)C(=O)[C@@H]2C1)Oc1cn[nH]c(=O)c1C(F)(F)F` [Compound 81C]: the IC50 amounted to 0.0192 µM.

`C[C@H](COCCC(=O)N1CCN2c3ncc(C(F)(F)F)cc3N(C)C(=O)[C@H]2C1)Oc1cn[nH]c(=O)c1C(F)(F)F` [Compound 81D] gave a half-maximal inhibitory concentration (IC50) of 0.0123 µM.

The same test, now with this note: Homo sapiens, NCI-H1373, 144 h, H1373 cells, 144 hrs incubation, Cell Titer Glo.
`C[C@@H](COCCC(=O)N1CCN2c3ncc(F)cc3N(C)C(=O)[C@@H]2C1)Nc1cn[nH]c(=O)c1C(F)(F)F` (single isomer, unassigned) [Compound 19A] registered an IC50 of 0.269 µM.

`C[C@@H](COCCC(=O)N1CCN2c3ncc(Cl)cc3N(C)C(=O)[C@H]2C1)Nc1cn[nH]c(=O)c1C(F)(F)F` (single isomer, unassigned) [Compound 20B] yielded an IC50 of 0.0574 µM. This IC50 lies about 4.7-fold lower than the previous one.

Regarding `CCN1C(=O)[C@@H]2CN(C(=O)CCOC[C@H](C)Nc3cn[nH]c(=O)c3C(F)(F)F)CCN2c2ncc(Br)cc21` (single isomer, unassigned) [Compound 23A], 0.117 µM corresponded to half-maximal inhibition (IC50).

Turning to `C[C@@H](COCCC(=O)N1CCN2c3ncc(C(F)(F)F)cc3N(CC(F)(F)F)C(=O)C2C1)Nc1cn[nH]c(=O)c1C(F)(F)F` (some centres unmarked) [Compound 8], the IC50 was found to be 0.203 µM. This IC50 is about 1.7-fold higher than that of the compound before.

`C[C@@H](COCCC(=O)N1CCN2c3ncc(C(F)(F)F)cc3NCCC2C1)Nc1cn[nH]c(=O)c1C(F)(F)F` (some centres unmarked) [Compound 37] came in with a 50% inhibitory concentration (IC50) of 0.203 µM.

The compound `C[C@@H](COCCC(=O)N1CCN2c3ncc(C(F)(F)F)cc3N(C)CC2C1)Nc1cn[nH]c(=O)c1C(F)(F)F` (some centres unmarked) [Compound 39] came in with an IC50 of 0.108 µM. This IC50 lies about 1.9-fold lower than the previous one.

With `C[C@@H](COCCC(=O)N1CCN2c3ncc(C(F)(F)F)cc3N(C)CCC2C1)Nc1cn[nH]c(=O)c1C(F)(F)F` (some centres unmarked) [Compound 40], the IC50 is 0.26 µM. This IC50 lies about 2.4-fold higher than the previous one.

On to `C[C@@H](COCCC(=O)N1CCn2c(cc3cc(C(F)(F)F)cnc32)C1)Nc1cn[nH]c(=O)c1C(F)(F)F` [Compound 41], for which the IC50 came to 0.276 µM.

`C[C@@H](COCCC(=O)N1CCn2c(c(Cl)c3cc(C(F)(F)F)cnc32)C1)Nc1cn[nH]c(=O)c1C(F)(F)F` [Compound 42]: the half-inhibitory concentration (IC50) came to 0.138 µM.

Regarding `Cc1c2n(c3ncc(C(F)(F)F)cc13)CCN(C(=O)CCOC[C@H](C)Nc1cn[nH]c(=O)c1C(F)(F)F)C2` [Compound 43], the half-maximal inhibitory concentration (IC50) was 0.105 µM. This IC50 and that of the compound before are within 1.5-fold of each other.

In turn, `C[C@@H](COCCC(=O)N1CCn2c(nc3cc(C(F)(F)F)cnc32)C1)Oc1cn[nH]c(=O)c1C(F)(F)F` [Compound 49A] returned an IC50 of 0.185 µM.

`C[C@@H](COCCC(=O)N1CCN2c3ncc(C(F)(F)F)cc3OC[C@H]2C1)Nc1cn[nH]c(=O)c1C(F)(F)F` [Compound 53A]: the IC50 is 0.296 µM.

In turn, `C[C@@H](COCCC(=O)N1CCN2c3ncc(C(F)(F)F)cc3OC[C@@H]2C1)Nc1cn[nH]c(=O)c1C(F)(F)F` [Compound 53B] showed an IC50 of 0.214 µM. The IC50 values of the last two compounds are within 1.5-fold of each other.

The compound `C[C@@H](COCCC(=O)N1CCN2c3ncc(C(F)(F)F)cc3OCC2C1)Nc1cn[nH]c(=O)c1C(F)(F)F` (some centres unmarked) [Compound 53] displayed an IC50 of 0.0797 µM.

For `C[C@@H](COCCC(=O)N1CCN2c3ncc(C(F)(F)F)cc3OCCC2C1)Nc1cn[nH]c(=O)c1C(F)(F)F` (some centres unmarked) [Compound 54], the IC50 was determined as 0.0636 µM.

Another test concerns the target PARP7 enzyme (Homo sapiens (Human), UniProt Q7Z3E1). Put plainly: PARP7 enzymatic experiment (HTRF assay). Format: biochemical. The note with it: 4PL fit.
With `C[C@@H](COCCC(=O)N1CCN2c3ncc(F)cc3N(C)C(=O)[C@@H]2C1)Nc1cn[nH]c(=O)c1C(F)(F)F` (single isomer, unassigned) [Compound 19A], the IC50 is 0.0017 µM.

Turning to `C[C@@H](COCCC(=O)N1CCN2c3ncc(Cl)cc3N(C)C(=O)[C@H]2C1)Nc1cn[nH]c(=O)c1C(F)(F)F` (single isomer, unassigned) [Compound 20B], the half-inhibitory concentration (IC50) came out at 0.00185 µM.

Take `CCN1C(=O)[C@@H]2CN(C(=O)CCOC[C@H](C)Nc3cn[nH]c(=O)c3C(F)(F)F)CCN2c2ncc(Br)cc21` (single isomer, unassigned) [Compound 23A]: 0.000804 µM corresponded to half-maximal inhibition (IC50). This IC50 is about 2.3-fold lower than that of the compound before.

On to `CC(C)N1C(=O)[C@H]2CN(C(=O)CCOC[C@H](C)Nc3cn[nH]c(=O)c3C(F)(F)F)CCN2c2ncc(C(F)(F)F)cc21` (single isomer, unassigned) [Compound 24B], for which the midpoint of inhibition, the IC50, lay at 0.00317 µM.

Consider `C[C@@H](COCCC(=O)N1CCN2c3ncc(Br)cc3SCC[C@@H]2C1)Nc1cn[nH]c(=O)c1C(F)(F)F` (single isomer, unassigned) [Compound 72B], for which half-maximal inhibition (IC50) required 0.00724 µM.

Consider `C[C@@H](COCCC(=O)N1CCN2c3ncc(Cl)cc3SCC[C@H]2C1)Nc1cn[nH]c(=O)c1C(F)(F)F` (single isomer, unassigned) [Compound 73B], for which half-maximal inhibition (IC50) was put at 0.0179 µM.

On to `C[C@@H](COCCC(=O)N1CCN2c3ncc(C(F)(F)F)cc3NC(=O)CC2C1)Nc1cn[nH]c(=O)c1C(F)(F)F` (some centres unmarked) [Compound 1A], for which the midpoint of inhibition, the IC50, lay at 0.0343 µM.

Compound `C[C@@H](COCCC(=O)N1CCc2c(c(=O)n(C)c3cc(C(F)(F)F)cnc23)C1)Nc1cn[nH]c(=O)c1C(F)(F)F` [Compound 12] returned an IC50 of 0.00292 µM.

`C[C@@H](COCCC(=O)N1CCN2c3nc(F)c(Cl)cc3N(C)C(=O)[C@H]2C1)Nc1cn[nH]c(=O)c1C(F)(F)F` [Compound 14B] registered an IC50 of 0.0399 µM.

In turn, `C[C@@H](COCCC(=O)N1CCN2c3ncc(C(F)(F)F)cc3N(C)C(=O)[C@@H]2C1)Nc1cn[nH]c(=O)c1Cl` [Compound 31A] gave an IC50 of 0.0258 µM.

The compound `C[C@@H](COCCC(=O)N1CCN2c3ncc(C(F)(F)F)cc3N(C)C(=O)[C@H]2C1)Nc1cn[nH]c(=O)c1Cl` [Compound 31B] registered an IC50 of 0.059 µM.

The compound `C[C@@H](COCCC(=O)N1CCN2c3ncc(C(F)(F)F)cc3N(C)C(=O)[C@@H]2C1)Nc1cn[nH]c(=O)c1Br` [Compound 32A] returned an IC50 of 0.00825 µM.

As to `C[C@@H](COCCC(=O)N1CCN2c3ncc(C(F)(F)F)cc3N(C)C(=O)[C@H]2C1)Nc1cn[nH]c(=O)c1Br` [Compound 32B], the IC50 is 0.02 µM. This IC50 is about 2.4-fold higher than that of the compound before.

Take `C[C@@H](COC[C@H](O)C(=O)N1CCN2c3ncc(Cl)cc3OCCC2C1)Nc1cn[nH]c(=O)c1C(F)(F)F` (some centres unmarked) [Compound 64B]: the IC50 amounted to 0.00946 µM.

`C[C@@H](COCCC(=O)N1CCN2c3ncc(C(F)(F)F)cc3[S@+]([O-])CC[C@@H]2C1)Nc1cn[nH]c(=O)c1C(F)(F)F` [Compound 74A] had a half-maximal inhibitory concentration (IC50) of 0.00216 µM.

With `C[C@@H](COCCC(=O)N1CCN2c3ncc(C(F)(F)F)cc3[S@+]([O-])CC[C@H]2C1)Nc1cn[nH]c(=O)c1C(F)(F)F` [Compound 74B], the IC50 amounted to 0.00223 µM.

Turning to `C[C@@H](COCCC(=O)N1CCN2c3ncc(C(F)(F)F)cc3[S@@+]([O-])CC[C@@H]2C1)Nc1cn[nH]c(=O)c1C(F)(F)F` [Compound 74C], the IC50 came to 0.0554 µM.

Take `C[C@@H](COCCC(=O)N1CCN2c3ncc(C(F)(F)F)cc3[S@@+]([O-])CC[C@H]2C1)Nc1cn[nH]c(=O)c1C(F)(F)F` [Compound 74D]: the IC50 is 0.0722 µM.

The compound `C[C@@H](COCCC(=O)N1CCN2c3ncc(C(F)(F)F)cc3S(=O)(=O)CC[C@@H]2C1)Nc1cn[nH]c(=O)c1C(F)(F)F` [Compound 75A] came in with an IC50 of 0.00364 µM.

The compound `C[C@@H](COCCC(=O)N1CCN2c3ncc(C(F)(F)F)cc3S(=O)(=O)CC[C@H]2C1)Nc1cn[nH]c(=O)c1C(F)(F)F` [Compound 75B] had an IC50 of 0.0135 µM.

Turning to `C[C@@H](COCCC(=O)N1CCN2c3ncc(C(F)(F)F)cc3C(C)(O)CC2C1)Nc1cn[nH]c(=O)c1C(F)(F)F` (some centres unmarked) [Compound 78], the IC50 is 0.00283 µM.

As to `CC(COCCC(=O)N1CCN2c3ncc(Cl)cc3OCCC2C1)Oc1cn[nH]c(=O)c1C(F)(F)F` (centres unmarked) [Compound 84], it took 0.00401 µM to reach half-maximal inhibition (IC50). The IC50 values of the last two compounds are within 1.5-fold of each other.

As a reminder, the IC50 is the concentration at which inhibition is half-maximal. A high value points to weaker potency in that assay.
